Drawing on US20250368628A1, “METHODS AND COMPOUNDS FOR MODULATING INHERITED GENETIC DISEASES” (Design Therapeutics, Inc., priority 2022, published 2025), this text covers EC50 for 27 compounds.

pEC50: −log10 of the molar value. Read-outs that look alike come from different tables or passages of the source. Some results are limits rather than exact numbers.

The test system of assay [1] is Myotonic Dystrophy 1 affected patient fibroblasts (Coriel GM04602; 1600 CTG repeats). The assay is described as follows: DM1 foci reduction assay (EC50 assay; CAG10-Cy3 FISH, foci per nucleus). The assay is classed as cell-based. The procedure, abridged: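 GM04602 DM1 patient fibroblasts (1600 CTG repeats) seeded 24 h, then treated 48 h at 37 °C with an 8-point 1:3 dose series from 3 μM. Cells PFA-fixed, ethanol-permeabilized and hybridized overnight with 5 nM CAG10-Cy3 probe, DAPI counterstained. Imaged at 20×, 4 fields per well, as average foci per nucleus.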

Assay [2] concerns F35T cells. The assay is described as follows: Foci reduction in FECD (CAG10-Cy3 FISH, foci per nucleus). The assay is classed as cell-based. The procedure, abridged: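 F35T cells, 5000 per well, were treated for 48 h at 37 °C, 5% CO2 in an 8-point dose response. Cells were then fixed in 4% PFA, permeabilized in 70% ethanol and hybridized overnight at 37 °C with a CAG10-Cy3 probe in 30% formamide/2×SSC. After DAPI staining, imaging gave foci per nucleus.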

The mark [3] stands for this setting: Homo sapiens, Fibroblast; DM1 patient fibroblasts, 48 h treatment, foci per nucleus; read-out: DM1 EC50, 48 h.
Where [4] appears, read: F35T cells, 48 h treatment, foci per nucleus; read-out: FECD EC50, 48 h.
The mark [5] stands for this setting: Homo sapiens, Fibroblast; DM1 patient fibroblasts, foci per nucleus, 48 h treatment; read-out: DM1 EC50, 48 h.
Setting [6] is: F35T cells, foci per nucleus, 48 h treatment; read-out: FECD EC50, 48 h.

For the compound `CN(CCCNC(=O)c1cccc(C(=O)OC(C)(C)C)c1)CCCNC(=O)c1cc(NC(=O)CCNC(=O)c2nc(NC(=O)CCCNC(=O)c3cc(NC(=O)c4nc(NC(=O)CCNC(=O)c5cc(NC(=O)c6nccn6C)cn5C)cn4C)cn3CCCCCCN=[N+]=[N-])cn2C)cn1C` [Compound B-359], the negative-log EC50 (pEC50) in assay [1] (setting [3]) and in assay [2] (setting [4]) was below 6.00 throughout.

As for `CN1CCN(C(=O)CCNC(=O)c2nc(NC(=O)c3cc(NC(=O)CCNC(=O)c4nc(NC(=O)CCCNC(=O)c5cc(NC(=O)c6nc(NC(=O)CCNC(=O)c7cc(NC(=O)c8nccn8C)cn7C)cn6C)cn5CCCCO)cn4C)cn3C)cn2C)CC1` [Compound B-427], the pEC50 is 6.30 to 7.00 in assay [1] (setting [5]) and above 7.00 in assay [2] (setting [6]).

Turning to `Cn1cc(NC(=O)c2nc(NC(=O)CCNC(=O)c3cc(NC(=O)c4nccn4C)cn3C)cn2C)cc1C(=O)NCCCC(=O)Nc1cn(C)c(C(=O)NCCC(=O)Nc2cc(C(=O)Nc3cn(C)c(C(=O)NCCCN=C(N)N)n3)n(C)c2)n1` [Compound B-205], the pEC50 in assay [1] (setting [3]) and in assay [2] (setting [4]) was above 7.00 each time.

For `Cn1cc(NC(=O)c2nc(NC(=O)CCNC(=O)c3cc(NC(=O)c4nccn4C)cn3C)cn2C)cc1C(=O)NCCCC(=O)Nc1cn(C)c(C(=O)NCCC(=O)Nc2cc(C(=O)Nc3cn(C)c(C(=O)NCCC(N)=O)n3)n(C)c2)n1` [Compound B-307], the values for the pEC50 in assay [1] (setting [3]) and in assay [2] (setting [4]) were 6.30 to 7.00 and above 7.00, respectively.

As for `CCOC(=O)CCNC(=O)c1nc(NC(=O)c2cc(NC(=O)CCNC(=O)c3nc(NC(=O)[C@@H](CCNC(=O)c4cc(NC(=O)c5nc(NC(=O)CCNC(=O)c6cc(NC(=O)c7nccn7C)cn6C)cn5C)cn4C)NC(C)=O)cn3C)cn2C)cn1C` [Compound B-4], the pEC50 in assay [1] (setting [3]) and in assay [2] (setting [4]) was 6.30 to 7.00 throughout.

Regarding `Cn1cc(NC(=O)c2nc(NC(=O)CCNC(=O)c3cc(NC(=O)c4nccn4C)cn3C)cn2C)cc1C(=O)NCCCC(=O)Nc1cn(C)c(C(=O)NCCC(=O)Nc2cc(C(=O)Nc3cn(C)c(C(=O)NCCC#N)n3)n(C)c2)n1` [Compound B-377], the pEC50 was 6.30 to 7.00 in assay [1] (setting [3]) and above 7.00 in assay [2] (setting [4]).

As for `CC(=O)NCCOCCOCCOCCOCCOCCNC(=O)CCNC(=O)c1nc(NC(=O)c2cc(NC(=O)CCNC(=O)c3nc(NC(=O)CCCNC(=O)c4cc(NC(=O)c5nc(NC(=O)CCNC(=O)c6cc(NC(C)c7nccn7C)cn6C)cn5C)cn4C)cn3C)cn2C)cn1C` (stereo not drawn) [Compound B-76], the pEC50 in assay [1] (setting [3]) and in assay [2] (setting [4]) was 6.30 to 7.00 in each case.

Consider `Cn1cc(NC(=O)c2nc(NC(=O)CCNC(=O)c3cc(NC(=O)c4nccn4C)cn3C)cn2C)cc1C(=O)NCCCC(=O)Nc1cn(C)c(C(=O)NCCC(=O)Nc2cc(C(=O)Nc3cn(C)c(C(=O)NCCC(=O)N4CCC(C#CC#CC5CCCCC5)CC4)n3)n(C)c2)n1` [Compound B-385], for which the results for the pEC50 in assay [1] (setting [3]) and in assay [2] (setting [4]) were below 6.00 and 6.30 to 7.00, respectively.

With `CCCCn1cc(NC(=O)c2nc(NC(=O)CCNC(=O)c3cc(NC(=O)c4nccn4C)cn3C)cn2C)cc1C(=O)NCCCC(=O)Nc1cn(C)c(C(=O)NCCC(=O)Nc2cc(C(=O)Nc3cn(C)c(C(=O)NCCC(=O)N4CCN(C)CC4)n3)n(C)c2)n1` [Compound B-426], the pEC50 in assay [1] (setting [5]) and in assay [2] (setting [6]) was 6.30 to 7.00 in each case.

Turning to `CCCNC(=O)CCNC(=O)c1nc(NC(=O)c2cc(NC(=O)CCNC(=O)c3nc(NC(=O)CCCNC(=O)c4cc(NC(=O)c5nc(NC(=O)CCNC(=O)c6cc(NC(=O)c7nccn7C)cn6C)cn5C)cn4CC(C)C)cn3C)cn2C)cn1C` [Compound B-403], the pEC50 in assay [1] (setting [3]) and in assay [2] (setting [4]) was above 7.00 each time.

Turning to `CN(CCCN)CCCNC(=O)c1nc(NC(=O)c2cc(NC(=O)CCNC(=O)c3nc(NC(=O)CCCNC(=O)c4cc(NC(=O)c5nc(NC(=O)CCNC(=O)c6cc(NC(=O)c7nccn7C)cn6C)cn5C)cn4CCCCCCN=[N+]=[N-])cn3C)cn2C)cn1C` [Compound B-364], the pEC50 is 6.30 to 7.00 in assay [1] (setting [3]) and below 6.00 in assay [2] (setting [4]).

Regarding `Cn1cc(NC(=O)c2nc(NC(=O)CCNC(=O)c3cc(NC(=O)c4nccn4C)cn3C)cn2C)cc1C(=O)NCCCC(=O)Nc1cn(C)c(C(=O)NCCC(=O)Nc2cc(C(=O)Nc3cn(C)c(C(=O)NCCC(=O)N4CCC(CN5CCNCC5)CC4)n3)n(C)c2)n1` [Compound B-127], the negative logarithm of the EC50 (pEC50) in assay [1] (setting [3]) and in assay [2] (setting [4]) was 6.30 to 7.00 in each case.

As for `CNC(=O)CCNC(=O)c1nc(NC(=O)c2cc(NC(=O)CCNC(=O)c3nc(NC(=O)CCCNC(=O)c4cc(NC(=O)c5nc(NC(=O)CCNC(=O)c6cc(NC(=O)c7nccn7C)cn6C)cn5C)cn4C)cn3C)cn2C)cn1C` [Compound B-309], the values for the pEC50 in assay [1] (setting [3]) and in assay [2] (setting [4]) were 6.00 to 6.30 and above 7.00, respectively.

On to `CCCNC(=O)CCNC(=O)c1nc(NC(=O)c2cc(NC(=O)CCNC(=O)c3nc(NC(=O)CCCNC(=O)c4cc(NC(=O)c5nc(NC(=O)CCNC(=O)c6cc(NC(=O)c7nc(N=C(N)N)cn7C)cn6C)cn5C)cn4C)cn3C)cn2C)cn1C` [Compound B-325], for which the pEC50 in assay [1] (setting [3]) is 6.00 to 6.30; in assay [2] (setting [4]), below 6.00.

As to `CN1CCN(C(=O)CCNC(=O)c2nc(NC(=O)c3cc(NC(=O)CCNC(=O)c4nc(NC(=O)C[C@H](CNC(=O)c5cc(NC(=O)c6nc(NC(=O)CCNC(=O)c7cc(NC(=O)c8nccn8C)cn7C)cn6C)cn5C)NC(=O)c5ccccc5)cn4C)cn3C)cn2C)CC1` [Compound B-417], the results for the pEC50 in assay [1] (setting [5]) and in assay [2] (setting [6]) were 6.30 to 7.00 and above 7.00, respectively.

With `CCCn1cc(NC(=O)c2nc(NC(=O)CCNC(=O)c3cc(NC(=O)c4nccn4C)cn3C)cn2C)cc1C(=O)NCCCC(=O)Nc1cn(C)c(C(=O)NCCC(=O)Nc2cc(C(=O)Nc3cn(C)c(C(=O)NCCC(=O)N4CCN(C)CC4)n3)n(C)c2)n1` [Compound B-429], the pEC50 in assay [1] (setting [5]) and in assay [2] (setting [6]) was above 7.00 each time.

Turning to `Cn1cc(NC(=O)c2nc(NC(=O)CCNC(=O)c3cc(NC(=O)c4nccn4C)cn3C)cn2C)cc1C(=O)NCCCC(=O)Nc1cn(C)c(C(=O)NCCC(=O)Nc2cc(C(=O)Nc3cn(C)c(C(=O)NCCC(=O)NCCOCCOCCOCCN4CCC(C#CC#CC5CCNCC5)CC4)n3)n(C)c2)n1` [Compound B-18], the pEC50 in assay [1] (setting [3]) and in assay [2] (setting [4]) was 6.30 to 7.00 in each case.

Regarding `CN(CCCNC(=O)c1cccc(C(=O)O)c1)CCCNC(=O)c1cc(NC(=O)CCNC(=O)c2nc(NC(=O)CCCNC(=O)c3cc(NC(=O)c4nc(NC(=O)CCNC(=O)c5cc(NC(=O)c6nccn6C)cn5C)cn4C)cn3CCCCCCN=[N+]=[N-])cn2C)cn1C` [Compound B-253], the pEC50 in assay [1] (setting [3]) and in assay [2] (setting [4]) was below 6.00 throughout.

For `CCCNC(=O)c1nc(NC(=O)c2cc(NC(=O)CCNC(=O)c3nc(NC(=O)CCCNC(=O)c4cc(NC(=O)c5nc(NC(=O)CCNC(=O)c6cc(NC(=O)c7nc(N=C(N)N)cn7C)cn6C)cn5C)cn4C)cn3C)cn2C)cn1C` [Compound B-328], the pEC50 in assay [1] (setting [3]) and in assay [2] (setting [4]) was 6.30 to 7.00 each time.

On to `Cn1cc(NC(=O)c2nc(NC(=O)CCNC(=O)c3cc(NC(=O)c4nccn4C)cn3C)cn2C)cc1C(=O)NCCCC(=O)Nc1cn(C)c(C(=O)NCCC(=O)Nc2cc(C(=O)Nc3cn(C)c(C(=O)NCCC(=O)N[C@@H](CCCNC(=N)N)C(=O)N[C@@H](CCCNC(=N)N)C(=O)NCCCCN=[N+]=[N-])n3)n(C)c2)n1` [Compound B-150], for which the pEC50 in assay [1] (setting [3]) and in assay [2] (setting [4]) was below 6.00 in each case.

With `CCCNC(=O)c1nc(NC(=O)c2cc(NC(=O)CCNC(=O)c3nc(NC(=O)CCCNC(=O)c4cc(NC(=O)c5nc(NC(=O)CCNC(=O)c6cc(NC(=O)c7nccn7C)cn6C)cn5C)cn4CCCCCCNC(=O)CCOCCOCCOCCOCCOCCOC)cn3C)cn2C)cn1C` [Compound B-235], the pEC50 in assay [1] (setting [3]) and in assay [2] (setting [4]) was below 6.00 each time.

For the compound `COCCOCCOCCOCCOCCOCCNC(=O)CCNC(=O)c1nc(NC(=O)c2cc(NC(=O)CCNC(=O)c3nc(NC(=O)CCCNC(=O)c4cc(NC(=O)c5nc(NC(=O)CCNC(=O)c6cc(NC(C)c7nccn7C)cn6C)cn5C)cn4C)cn3C)cn2C)cn1C` (stereo not drawn) [Compound B-78], the pEC50 in assay [1] (setting [3]) and in assay [2] (setting [4]) was 6.30 to 7.00 throughout.

With `CCCNC(=O)c1nc(NC(=O)c2cc(NC(=O)CCNC(=O)c3nc(NC(=O)[C@H](N)CCNC(=O)c4cc(NC(=O)c5nc(NC(=O)CCNC(=O)c6cc(NC(=O)c7nccn7C)cn6C)cn5C)cn4C)cn3C)cn2C)cn1C` [Compound B-409], the pEC50 in assay [1] (setting [3]) and in assay [2] (setting [4]) was above 7.00 throughout.

For the compound `CCCNC(=O)c1cc(NC(=O)c2nc(NC(=O)CCNC(=O)c3cc(NC(=O)c4nc(NC(=O)CCCNC(=O)c5cc(NC(=O)c6nc(NC(=O)CCNC(=O)c7cc(NC(=O)c8nccn8C)cn7C)cn6C)cn5C)cn4C)cn3C)cn2C)cn1C` [Compound B-9], the pEC50 in assay [1] (setting [3]) was below 6.00; in assay [2] (setting [4]), above 7.00.

As to `Cn1cc(NC(=O)c2nc(NC(=O)CCNC(=O)c3cc(NC(=O)c4nccn4C)cn3C)cn2C)cc1C(=O)NCCCC(=O)Nc1cn(C)c(C(=O)NCCC(=O)Nc2cc(C(=O)Nc3cn(C)c(C(=O)NCCC(=O)NCCCCN=[N+]=[N-])n3)n(C)c2)n1` [Compound B-45], the results for the pEC50 in assay [1] (setting [3]) and in assay [2] (setting [4]) were above 7.00 and 6.00 to 6.30, respectively.

Consider `Cn1cc(NC(=O)c2nc(NC(=O)CCNC(=O)c3cc(NC(=O)c4nccn4C)cn3C)cn2C)cc1C(=O)NCCCC(=O)Nc1cn(C)c(C(=O)NCCC(=O)Nc2cc(C(=O)Nc3cn(C)c(C(=O)NCCCOCOP(=O)(O)O)n3)n(C)c2)n1` [Compound B-332], for which the figures for the pEC50 in assay [1] (setting [3]) and in assay [2] (setting [4]) were 6.30 to 7.00 and above 7.00, respectively.

As to `CNC(=O)c1nc(NC(=O)c2cc(NC(=O)CCNC(=O)c3nc(NC(=O)CCCNC(=O)c4cc(NC(=O)c5nc(NC(=O)CCNC(=O)c6cc(NC(=O)c7nccn7C)cn6C)cn5C)cn4C)cn3C)cn2C)cn1C` [Compound B-310], the pEC50 in assay [1] (setting [3]) and in assay [2] (setting [4]) was above 7.00 throughout.
